Measurements published in article PMC4919066 (PLoS Pathogens, 2016).

Key:
[1] = test system: HCMV Towne; experiment: HCMV plaque reduction assay in HFFs; assay type: cell-based, Human Cytomegalovirus; settings: GCV 5 μM, 0.5 and 2 million cells/plate
Experimental: (§1) Human Foreskin Fibroblasts (HFFs) passage 12–16 (ATCC, CRL-2088) and mouse embryonic fibroblasts (MEFs) passage 9–14 (ATCC, CRL-1658) were grown in Dulbecco's Modified Eagle Medium (DMEM) containing 10% fetal bovine serum (FBS) (Gibco, Carlsbad, CA) in a 5% CO2 incubator at 37°C. Infection with HCMV or HSV was performed in HFFs, and infection with mouse CMV was performed in MEFs. For HCMV, cells were seeded in either a 96-well plate or 100 mm culture plates (Corning Costar, Sigma Aldrich) at 0.5 or 2 million cells /plate. Following 90 minute adsorption, media was removed and cells were washed with PBS. Media containing 4% FBS and compounds were added to each well. Infected treated HFFs were collected at 72 hpi and lysates were assayed for luciferase activity using a luciferase assay kit (Promega, Madison, WI) on GloMax-Multi+ Detection System (Promega). In second cycle assays, supernatants were collected from all conditions of the first cycle at 96 hpi and used for infection of fresh HFFs in 96-well plates. Luciferase activity was measured 72 h following second cycle infection. For HSV1-KOS/Dlux/oriS, a luciferase assay was performed at 24 hpi. Plaque assays were performed with clinical isolates of HSV2 and HCMV Towne (ATCC VR-977). HFFs were seeded at 3 million cells/plate in 12-well plates and infected 24 h later with HSV2 at 200 PFU/well. For HCMV or MCMV, HFFs or MEFs were seeded at 0.5 or 2 million cells /plate in a 12-well plate and infected 24 hours later at 100 PFU/well. Following virus adsorption (60 min and 90 min for HSV and HCMV, respectively), virus was aspirated, and DMEM containing 4% fetal bovine serum (FBS) with (for HSV) or without (for HCMV/MCMV) 0.5% carboxymethyl-cellulose, were added with the compounds at indicated concentrations into triplicate wells. After incubation at 37°C for 10 days (for HCMV), 3 days for MCMV or 2 days (for HSV), the overlay was removed and plaques were counted after crystal violet staining.

[2] = test system: MCMV; experiment: MCMV plaque reduction assay in MEFs; assay type: cell-based, mouse CMV; settings: GCV 5 μM, 0.5 and 2 million cells/plate
Experimental: The pp28-luciferase HCMV Towne and a GCV-resistant pp28-luciferase were used. The recombinant viruses express luciferase under the control of the late CMV gene promoter, pp28. Luciferase expression is activated 48–72 hours post infection (hpi). The recombinant viruses provide a highly-sensitive reporter system which correlates with plaque reduction assay. The Towne HCMV strain (ATCC VR-977) was used for plaque reduction, quantitative reverse transcriptase PCR (qRT-PCR), and immunoprecipitation assays. Human herpes virus strains were: luciferase HSV1- KOS/Dlux/oriS [52] and clinical isolates of HSV2. The clinical isolates were provided by the clinical microbiology laboratory with no identifiers that can link to a specific subject. Murid Herpesvirus (MCMV: ATCC VR-1399) was used for infection of mouse embryonic fibroblasts (MEFs) and mice.
as §1, with “For HSV1-KOS/Dlux/oriS, a luciferase assay was performed at 24 hpi. Plaque assays were performed with clinical isolates of HSV2 and HCMV Towne (ATCC VR-977). HFFs were seeded at 3 million cells/plate in 12-well plates and infected 24 h later with HSV2 at 200 PFU/well. For HCMV or MCMV, HFFs or MEFs were seeded at 0.5 or 2 million cells /plate in a 12-well plate and infected 24 hours later at 100 PFU/well. Following virus adsorption (60 min and 90 min for HSV and HCMV, respectively), virus was aspirated, and DMEM containing 4% fetal bovine serum (FBS) with (for HSV) or without (for HCMV/MCMV) 0.5% carboxymethyl-cellulose, were added with the compounds at indicated concentrations into triplicate wells.” left out

[3] = test system: HCMV; experiment: Virus entry, pp65 immunofluorescence assay; assay type: cell-based, Human Cytomegalovirus; settings: emetine 75 nM, GCV 10 μM, CpG 2006 10 μM, added 24 h prior to infection
[4] = test system: HCMV; experiment: Generation of drug resistant virus; assay type: cell-based, Human Cytomegalovirus; settings: 5 passages, UL97 sequencing
Experimental: Screening of drug resistant virus was performed as reported. Two million cells were plated on a 6-well plate and infected with HCMV (MOI 0.05). […] The cells were maintained in DMEM with 4% FBS until plaques were observed. The supernatants from these plates were used to infect fresh HFFs in a 6-well plate and each time drug concentration was increased by two fold. […] DNA extracted from supernatants collected at the last stage was used for UL97 sequencing.

[5] = test system: MDM2-IE2; experiment: Co-immunoprecipitation MDM2-IE2 in transfected HEK293 cells; assay type: cell-based; settings: IE1/2 transfection, emetine 75 nM or GCV 5 μM for 4 h
Experimental: HEK-293 cells seeded into 10 cm petri dishes were transfected with HCMV plasmid encoding IE1 and IE2 (pRL45), using Lipofectamine 2000 in serum free medium. After 6 h, 10% FBS containing media was added along with 10 μM of MG132. […] Cells were then harvested to prepare lysates for IP.
Non-infected, infected or emetine-treated HFFs were treated with MG132 (10 μM) for 12h. Cells were harvested after 24 hpi and lysed with IP buffer containing 150 mM NaCl, 50mM Tris pH 7.5, 2 mM EDTA, 0.5% TritonX-100 and 0.5% NP-40-40. 1 mg of lysate was precleared with bead slurry for 30 min. The precleared lysates were incubated with anti-MDM2 (2 μg) antibody overnight. The antibody complexes were isolated using protein A/G beads (Santa Cruz), washed three times with 50% IP buffer. The immunoprecipitate-protein A/G beads were boiled in SDS sample buffer, and the supernatant was analyzed on SDS-PAGE gels after immunoblotting as described previously. 1% of the cell lysate used for IP was loaded on gels as ‘Input’. Confirmatory reverse IPs were performed as described in each experiment. Isotype control antibodies included: rabbit IgG polyclonal, mouse IgG2a kappa and mouse IgG2b kappa monoclonal (Abcam). Mouse monoclonal RPS19 antibody (Abcam) served as an additional negative control for the IPs. Densitometry analysis was performed to determine relative ratio of immunoprecipitated protein to its input level.

Q: Which results are given for `Nc1nc(O)c2ncn(COC(CO)CO)c2n1` [GCV, Ganciclovir]?
A: HCMV inhibition and cell density [1]: inhibited HCMV and MCMV irrespective of cell density; MCMV inhibition and cell density [2]: inhibited HCMV and MCMV irrespective of cell density; inhibition of viral entry [3]: neither emetine nor GCV inhibited viral entry; selection of resistant virus with increasing drug concentration [4]: selected for a C607Y mutation in UL97; interaction between MDM2 and IE2 [5]: had no effect on this interaction
